The values below come from patent US20240423941A1, “MEDIUM CHAIN DICARBOXYLIC ACIDS FOR THE TREATMENT AND PREVENTION OF DISEASES AND CONDITIONS” (University of Pittsburgh - Of the Commonwealth System of …, priority 2021, published 2024).

The subject of data set [1] is lysine succinylation (Suc-Lys) PTMs. Briefly: Western blotting of lysine succinylation in tissues of mice fed dicarboxylic acids. The class given is in vivo, wildtype C57Bl/6 mice. The note with it: for lysine succinylation (Suc-Lys) PTMs in kidney / lysine succinylation (Suc-Lys) PTMs in liver: fed 10% w/w for 7 days. An excerpt:
FIGS. 1A-1C. Feeding mice DCAs causes a dramatic shift in the post-translational modification (PTM) landscape. […] ND=normal diet. FIG. 1B) Mice were fed 10% DC12 for 0 to 7 days; some mice underwent a 7-day “washout” after 7 days on DC12.
FIG. 6. DC8 causes robust kidney specific succinylation. DC8, DC10 and DC12 were fed to wild-type mice at 10% w/w for 7 days.
(§1) We hypothesized that peroxisomes can chain-shorten DC12 as far as DC4-CoA, also known as succinyl-CoA. Such a mechanism would be predicted to 1) result in protein succinylation in the peroxisome, due to the known high chemical reactivity between lysine residues and succinyl-CoA; and 2) “feed” the mitochondrial TCA cycle with the products of DC12 chain-shortening, namely 2-carbon units (acetate) and succinate. We fed wildtype C57Bl/6 mice DC12 mixed into the diet and measured protein succinylation as a proxy for succinyl-CoA formation. […] The succinylation is seen to arise within 1 day and becomes maximal at 7 days (FIG. 1B). The effect is reversible when the diet is removed. DC12 degradation also produces acetyl-CoA. […] Like succinyl-CoA, glutaryl-CoA (DC5-CoA) is also highly reactive.
DC8 induces high-level, kidney-specific protein succinylation. […] Potential side effects caused by liver metabolization can be avoided, and the liver is not reducing the available agent.
(In general: In western blotting, separated proteins are transferred to a membrane and probed.)

The subject of data set [2] is long-chain acyl-CoA dehydrogenase (LCAD) knockout mice. Nature of the data set: LCAD knockout mice, model of mitochondrial long-chain fatty acid oxidation disorders. It counts as in vivo. The source says:
FIG. 11A-11E. DC12 and DC10 improve functioning in long-chain acyl-CoA dehydrogenase (LCAD) knockout mice, a mouse model of mitochondrial long-chain fatty acid oxidation disorders.

For a further data set, the system named is ischemic AKI. Nature of the data set: Unilateral ischemic kidney injury (ischemic AKI). It counts as in vivo, male mice. The note with it: for BUN / kidney damage by H & E staining (dilated tubules, proteinaceous casts) / serum creatinine: diet-fed versus normal diet; for expression of the injury marker NGAL in proximal tubules: immunostaining. An excerpt: FIG. 3. DC12 treatment mitigates ischemic kidney injury. Normal diet or DC12-fed male mice were subjected to ischemic AKI. […] Tubular dilation (arrows), debris, or proteinaceous casts are indicated (*). […] E,F) DC12-fed mice had lower serum creatinine and BUN, which are markers of kidney dysfunction. *p<0.05.
FIGS. 7A-7F. […] Normal diet or DC8-fed male mice were subjected to ischemic AKI. […] Tubular dilation (arrows), debris, or proteinaceous casts are indicated (*). […] FIGS. 7E,7F) DC8-fed mice had lower serum creatinine and BUN, which are markers of kidney dysfunction. ****p<0.0001.
DC12 is renoprotective. […] To test this, mice that had been fed ±10% DC12 for 7 days were subjected to unilateral ischemic kidney injury. In this model, the uninjured contralateral kidney is removed on Day 6 post-injury and used as control tissue, and the injured kidneys are collected one day later for analysis. The diet was continued during the 6-day recovery period post-injury, as well as after removing the contralateral kidney.
(§2) The effect of DC8 in ischemic AKI was also tested.

Data set [3] concerns unilateral ureteral obstruction (UUO). Briefly: Unilateral ureteral obstruction (UUO) model of interstitial fibrosis. It counts as in vivo. The note with it: DC8 fed versus control fed diet. The source says:
FIG. 14. DC8 treatment was also protective against a chronic kidney disease model of interstitial fibrosis. As was evidenced in the control fed diet 14A and A′ when the kidney was subjected to unilateral ureteral obstruction (UUO) that there was a significant amount of trichrome positive fibrosis in the interstitium (blue).

A further data set has as its system protein acetylation. Briefly: Protein acetylation with pan anti-acetyllysine antibody in DC12-fed mice. It counts as in vivo.
Text: as §1

Data set [4] relates to lysine succinylation in liver peroxisomes. Nature of the data set: Lysine succinylation in liver peroxisomes and homogenates of WT versus Sirt5KO mice fed DC12. The class given is in vivo. The source says:
FIGS. 2A-2C. […] FIG. 2A) Livers from N=3 mice fed DC12 for 7 days, separated by Histodenz gradient centrifugation to yield pure peroxisomes and blotted with anti-succinyllysine (SucLys). ND lanes=one control mouse of each genotype fed normal diet. Peroxisome fraction is positive for peroxisome marker PMP70 but negative for mitochondrial Tim23 except for WT sample #2 which had minor mitochondrial contamination. FIG. 2B) Densitometry from panel (FIG. 2A) showing total SucLys signal normalized to PMP70. FIG. 2C) Liver homogenates from normal diet (ND) and Sirt5KO mice (N=4) were subjected to quantitative site-level mass spectrometry for succinylated peptides. The Y-axis is Log 2 fold-change for each peptide relative to wild-type (WT) on ND. Each dot is an individual peptide.
An important question was whether Sirt5, a deacylase that can reverse succinylation and glutarylation, would offset and reverse the effects of feeding DCAs.

The subject of data set [5] is lysine succinylation PTMs in kidney. Nature of the data set: Quantitative mass spectrometry of contralateral and injured kidneys (AKI ± DC12). It counts as in vivo, mice. An excerpt:
FIGS. 4A-4C. Effects of injury and DC12 on protein succinylation PTMs. N=4 mice were subjected to AKI±7 days of 10% DC12. Contralateral (non-injured kidneys) served as control. Quantitative mass spectrometry was used to profile lysine succinylation PTMs at the protein and site-level. […] FIG. 4C) Succinylation of individual lysine-containing peptides from four key peroxisomal proteins, normalized to control diet non-injured levels.
Portions of contralateral control kidney and injured kidney were used for quantitative mass spectrometry, to measure both total protein abundance and site-level changes in lysine succinylation.

The next data set concerns cisplatin kidney injury. Nature of the data set: Nephrotoxic (cisplatin) model of AKI. It counts as in vivo, male 129 WT mice. The procedure: FIGS. 5A-5B. DC12 treatment mitigates cisplatin kidney injury. Normal diet or DC12-fed (7 days pre-treatment+3 days post-treatment) male 129 WT mice were injected i.p. with 18 mg/kg cisplatin and sacrificed at day 3. (FIG. 5A) Reduction of serum bicarbonate by cisplatin-AKI was mitigated in DC12 treated mice. (FIG. 5B) Renal tubular injury by cisplatin is mitigated in DC12 treated mice. Magnified images for dotted boxed areas are shown. Tubular dilation, debris, or proteinaceous casts are indicated(*) n=6-7, mean±SEM, t-test, *p<0.05, Scale bars: 50 um
We also conducted a nephrotoxic model of AKI (cisplatin).
as §2

Data set [6] can be described thus: Body weight, food intake, grip strength and body composition (EchoMRI) in DC12-fed mice. It counts as in vivo. The procedure: FIGS. 8A-8G. […] FIG. 8A, 8B) Mice were fed DC12 for 5 weeks. Body weight and food weights were measured 3 times per week. […] Forelimb peak force was measured with a grip strength meter and normalized to body weight.
Data set [7] is described as follows: Indirect calorimetry (CLAMS) in DC12-fed mice. It counts as in vivo. An excerpt: FIGS. 9A-9D. DC12 increases whole-body energy expenditure and respiratory exchange ratio. Indirect calorimetry indicated increased whole-body respiration as measured in the CLAMS apparatus over 72 hrs, for both oxygen consumed (FIG. 9A) and carbon dioxide produced (FIG. 9B). […] The calculated energy expenditure in the DC12 group was higher (FIG. 9D).

Data set [8] is described as follows: Treadmill run to exhaustion, blood lactate. The note with it: DC12 diet for 7 days. The class given is in vivo, wildtype mice. The procedure:
(§3) FIGS. 10A-10D. DC12 protects against lactic acidosis. Wildtype mice were maintained on DC12 diet for 7 days, then run on a treadmill to exhaustion. […] Then, mice fed DC12 were tested for protection against metformin overdose, which is clinically known to induce a lethal lactic acidosis. After a single 400 mg/kg dose of metformin, 9/11 mice on control diet died, while 0/12 mice on DC12 diet died (FIG. 10B).

In a further data set the test system is metformin overdose. Nature of the data set: Metformin overdose (lactic acidosis). It counts as in vivo, mice. The procedure:
as §3

Data set [9] concerns lysine glutarylation (Glu-Lys). Briefly: Western blotting of lysine glutarylation in mice fed DC11. The class given is in vivo. The note with it: 10% w/w for 7 days.

Structures are written as SMILES. Entries after “also recorded” stand apart in the source; their conditions may differ.

Take `O=C(O)CCCCCCCCC(=O)O` [DC10, decanedioic acid]: in data set [1] (western blotting), the “lysine succinylation (Suc-Lys) PTMs in kidney” value is recorded as “large increase; also recorded: stronger protein succinylation” and the “lysine succinylation (Suc-Lys) PTMs in liver” value is “moderate upregulation”. Also, the “blood lactate after acute exercise stress test on a treadmill” value in data set [2] (single dose) is on record as “significantly lowered”.
`O=C(O)CCCCCCC(=O)O` [DC8, octanedioic acid]: in data set [1] (western blotting), the “lysine succinylation (Suc-Lys) PTMs in kidney” value is “dramatic increase; also recorded: stronger protein succinylation” and the “lysine succinylation (Suc-Lys) PTMs in liver” value is recorded as “not the liver”. In the data set on ischemic AKI (after ischemic injury), the kidney function result was “dramatically improved”. In the data set on ischemic AKI, the BUN entry is listed as “lower”; the “kidney damage by H & E staining (dilated tubules, proteinaceous casts)” value is “reduced kidney damage; also recorded: marked reduction in kidney damage”; the serum creatinine entry is on record as “lower”; the “expression of the injury marker NGAL in proximal tubules” value is reported as “markedly reduced”. Further, the “interstitial fibrosis (trichrome)” value in [3] was “dramatically decreased”.
With `O=C(O)CCCCCCCCCCC(=O)O` [DC12, dodecanedioic acid], the reversibility of succinylation entry in data set [1] (7-day washout after 7 days on DC12) is given as “reversible”. Also, in data set [1] (10% DC12 for 0 to 7 days), the “time at which succinylation becomes maximal” value turned out to be 7 days and the “time for succinylation to arise” value was not above 1 days. In [1] (DC12 mixed into the diet, western blotting), the “succinylation in muscle, heart, and brain” value is “no change”. In data set [1] (western blotting), the “lysine succinylation (Suc-Lys) PTMs in kidney” value is recorded as “massive increase; also recorded: moderate increase; also recorded: massive upregulation” and the “lysine succinylation (Suc-Lys) PTMs in liver” value is on record as “massive increase; also recorded: large increase; also recorded: massive upregulation; also recorded: strongest protein succinylation”. The protein acetylation entry in the data set on protein acetylation is “no changes were observed”. Further, the “lysine succinylation in liver peroxisomes, WT versus Sirt5-/-” value in data set [4] (10% DC12 for 7 days, anti-succinyllysine blot) is “equal lysine succinylation”. The “succinylated peptides, fold-change relative to WT on normal diet” value in data set [4] (liver, quantitative mass spectrometry) is “very high fold-changes in succinylation in both genotypes; also recorded: increases lysine succinylation dramatically”. Further, in the data set on ischemic AKI, the BUN entry was “lower; also recorded: significantly reduced”; the “kidney damage by H & E staining (dilated tubules, proteinaceous casts)” value is “reduced kidney damage; also recorded: reduced the number of dilated tubules and proteinaceous casts”; the serum creatinine result was “lower; also recorded: significantly reduced”; the “expression of the injury marker NGAL in proximal tubules” value was “markedly reduced; also recorded: less induction”. Also, in data set [5] (7 days of 10% DC12, quantitative mass spectrometry), the “lysine succinylation in kidney” value is “massively increased; also recorded: massive effects”. In data set [5] (compared to baseline (contralateral)), the “succinylation level of kidney peroxisomal proteins” value is on record as “greatly increased”. For the same compound, the “protein expression in kidney” value in data set [5] (total protein abundance, quantitative mass spectrometry) was “very minimal if any effect”. In the data set with cisplatin kidney injury (18 mg/kg cisplatin i.p., day 3), the “reduction of serum bicarbonate by cisplatin-AKI” value was “mitigated; also recorded: improved functionality” and the “renal tubular injury by cisplatin (histology)” value was “mitigated; also recorded: less structural damage”. Besides, the “protection against injury in cisplatin model” value in the data set with cisplatin kidney injury (mouse, in vivo) is recorded as “protected against injury”. Further, in [6] (5 weeks or 9 weeks, EchoMRI), the fat mass result is “reduces fat mass” and the lean mass result was “not altering lean mass”. Besides, in data set [6] (at sacrifice), the “liver fat (triacylglycerol, TAG)” value is recorded as “also reduced” and the “mass of the intra-abdominal fat pad (epididymal)” value is reported as “significantly reduced”. In addition, in data set [6] (fed DC12 for 5 weeks), the body weight entry was “reduced body weight” and the food intake entry is “without changing food intake”. In addition, the “muscle strength (forelimb peak force normalized to body weight)” value in [6] (grip strength meter) is “does not reduce muscle strength”. In data set [7] (CLAMS over 72 hrs), the “whole-body respiration, carbon dioxide produced” value was “increased” and the “whole-body respiration, oxygen consumed” value is “increased”. Also, in [7] (dark period), the “respiratory exchange ratio (RER)” value is “shift toward a higher RER”. In data set [7] (mouse, in vivo), the calculated energy expenditure result is given as “higher”. Besides, the “blood lactate at exhaustion” value in data set [8] is given as “significantly reduced”. Further, in the data set with metformin overdose (2 hr post-metformin injection), the “blood glucose levels relative to control” value is listed as “twice as high as control” and the “lactate levels, lower than control” value stood at 50%. The mice that died in the data set with metformin overdose (single 400 mg/kg dose of metformin) is given as 0/12. Also, in data set [2] (two weeks on 10% DC12 diet), the fasting glucose result is “improved”, the forelimb grip strength result is listed as “improved”, the spontaneous locomotion result is reported as “improved” and the time spent resting entry is recorded as “less”.
In the case of `O=C(O)CCCCCCCCCC(=O)O` [DC11, undecanedioic acid], the “lysine glutarylation (Glu-Lys) in liver and kidney” value in [9] was “massive increase; also recorded: high-level protein glutarylation”.
